The nature of data set [1]: Toxicity in nude mouse xenografted with human SW1990 cells assessed as lung damage at 45 mg/kg, ip administered for 28 days by H and E staining based fluorescence microscopic analysis. The data set is classed as organism-based. The conditions noted are these: in vivo, 672 h, time 28 day.
Data set [2] can be described thus: Toxicity in nude mouse xenografted with human SW1990 cells assessed as kidney damage at 45 mg/kg, ip administered for 28 days by H and E staining based fluorescence microscopic analysis. The data set is classed as organism-based. The conditions noted are these: in vivo, 672 h, time 28 day. A general note: A xenograft is tissue or cells of one species grown in another, often human tumour cells in immunodeficient mice.

Data set [3] deals with Mus musculus. Briefly: Upregulation of E2F2 expression in nude mouse xenografted with human SW1990 cells at 45 mg/kg, ip measured after 4 days by Q-PCR analysis. The format is functional, organism-based. The conditions noted are these: time 4.0 day.
Data set [4] deals with Mus musculus. Kind of data set: Upregulation of CCND1 expression in nude mouse xenografted with human SW1990 cells at 45 mg/kg, ip measured after 4 days by Western blot analysis. The data set is classed as functional, organism-based. The conditions noted are these: time 4.0 day.
The test system of data set [5] is SW1990. Kind of data set: Effect on CDC25A gene expression in human SW1990 cells at 6 uM by Q-PCR analysis. The format is functional, cell-based.
The subject of data set [6] is SW1990. Briefly: Effect on CCND1 gene expression in human SW1990 cells at 6 uM by Q-PCR analysis. The format is functional, cell-based.
Data set [7] has as its system SW1990. Briefly: Effect on FOXO1 gene expression in human SW1990 cells at 6 uM by Q-PCR analysis. The format is functional, cell-based.
For data set [8], the system named is SW1990. Briefly: Effect on ALDH1A1 gene expression in human SW1990 cells at 6 uM by Q-PCR analysis. The format is functional, cell-based.
Data set [9] concerns SW1990. Briefly: Upregulation of FOXM1 expression in human SW1990 cells at 6 uM measured after 4 days by Western blot analysis. The data set is classed as functional, cell-based. The conditions noted are these: time 4.0 day. For orientation: In western blotting, separated proteins are transferred to a membrane and probed.
For data set [10], the system named is SW1990. Briefly: Upregulation of BRD4 expression in human SW1990 cells at 6 uM measured after 4 days by Western blot analysis. The data set is classed as functional, cell-based. The settings on record: time 4.0 day.
In data set [11] the test system is SW1990. Kind of data set: Effect on CDC25B gene expression in human SW1990 cells at 4 uM by Q-PCR analysis. The data set is classed as functional, cell-based.
Data set [12] can be described thus: Toxicity in nude mouse xenografted with human SW1990 cells assessed as spleen damage at 15 mg/kg, ip administered for 28 days in presence of 45 mg/kg Olaparib by H and E staining based fluorescence microscopic analysis. The format is organism-based. The conditions noted are these: in vivo, 672 h, time 28 day.
Data set [13] can be described thus: Toxicity in nude mouse xenografted with human SW1990 cells assessed as lung damage at 15 mg/kg, ip administered for 28 days in presence of 45 mg/kg Olaparib by H and E staining based fluorescence microscopic analysis. The format is organism-based. The conditions noted are these: in vivo, 672 h, time 28 day.
The test system of data set [14] is SW1990. Kind of data set: Induction of apoptosis in human SW1990 cells assessed as necrotic cells at 1 uM measured after 4 days in presence of 3 uM Olaparib by Annexin V-FITC and propidium iodide staining based flow cytometry (reference value: 2.45%). The data set is classed as functional. The settings on record: time 4 day.
The test system of data set [15] is SW1990. Briefly: Induction of cell cycle arrest in human SW1990 cells assessed as accumulation of cells at S phase at 4 uM incubated for 4 days by propidium iodide staining based flow cytometry (reference value: 29.32%). The format is functional. The settings on record: time 4 day. Background: A flow cytometer gives signals particle by particle.
For data set [16], the system named is SW1990. Kind of data set: Induction of cell cycle arrest in human SW1990 cells assessed as accumulation of cells at G2/M phase at 4 uM incubated for 4 days by propidium iodide staining based flow cytometry (reference value: 5.89%). The data set is classed as functional. The settings on record: time 4 day.
Data set [17] relates to SW1990. Briefly: Induction of cell cycle arrest in human SW1990 cells assessed as accumulation of cells at G0/G1 phase at 1 uM incubated for 4 days in presence of 3 uM Olaparib by propidium iodide staining based flow cytometry (reference value: 64.79%). The format is functional. The conditions noted are these: time 4 day.
The test system of data set [18] is SW1990. Kind of data set: Induction of DNA damage in human SW1990 cells assessed as increase in tail DNA at 4 uM incubated for 4 days by comet assay. The data set is classed as functional, cell-based. The conditions noted are these: time 4.0 day.
Data set [19] has as its system SW1990. Kind of data set: Induction of DNA damage in human SW1990 cells assessed as increase in gammaH2AX expression at 4 uM incubated for 4 days by DAPI staining based laser confocal microscopic analysis. The data set is classed as functional, cell-based. The settings on record: time 4.0 day.
In data set [20] the test system is SW1990. Kind of data set: Effect on CDC25A gene expression in human SW1990 cells at 4 uM by Q-PCR analysis. The format is functional, cell-based.
Data set [21] has as its system SW1990. Briefly: Effect on CDK1 gene expression in human SW1990 cells at 4 uM by Q-PCR analysis. The data set is classed as functional, cell-based.
In data set [22] the test system is SW1990. Kind of data set: Effect on CCND1 gene expression in human SW1990 cells at 4 uM by Q-PCR analysis. The format is functional, cell-based.
Data set [23] relates to SW1990. Kind of data set: Effect on BRCA2 gene expression in human SW1990 cells at 4 uM by Q-PCR analysis. The format is functional, cell-based.
The subject of data set [24] is SW1990. Kind of data set: Effect on TOPBP1 gene expression in human SW1990 cells at 4 uM by Q-PCR analysis. The format is functional, cell-based.
In data set [25] the test system is SW1990. Briefly: Effect on TOPBP1 gene expression in human SW1990 cells at 1 uM in presence of Olaparib by Q-PCR analysis. The data set is classed as functional, cell-based.
Data set [26] deals with Mus musculus. Kind of data set: Inhibition of homologous recombinant repair in nude mouse xenografted with human SW1990 cells assessed as reversal of olaparib-induced BRCA1 expression at 30 mg/kg, ip measured after 4 days by Western blot analysis. The format is functional, organism-based. The conditions noted are these: time 4.0 day.
The test system of data set [27] is SW1990. Briefly: Inhibition of colony formation in human SW1990 cells at 1 uM after 14 days by crystal violet staining based microscopic analysis. The format is functional, cell-based. The settings on record: time 14.0 day.
The target in data set [28] is Bromodomain-containing protein 4 (Homo sapiens, UniProt O60885). Kind of data set: Inhibition of BRD4-BD1/2 (unknown origin).
The test system of data set [29] is Mus musculus. Kind of data set: Inhibition of PARP1 expression in nude mouse xenografted with human […] cells at 30 mg/kg, ip administered for 28 days by Western blot analysis. The conditions noted are these: time 28.0 day. The data set is classed as functional, organism-based.
The test system of data set [30] is SW1990. Briefly: Induction of DNA damage in human SW1990 cells assessed as increase in gammaH2AX expression at 1 to 2 uM incubated for 4 days by DAPI staining based laser confocal microscopic analysis. The format is functional, cell-based. The settings on record: dose 1-2 µM, time 4.0 day.
Data set [31] concerns SW1990. Briefly: Inhibition of homologous recombinant repair in human SW1990 cells assessed as reversal of Olaparib-induced MDC1 expression at 1 to 2 uM after 4 days by Western blot analysis. The settings on record: dose 1-2 µM, time 4.0 day. The data set is classed as functional, cell-based.
Data set [32] has as its system Mus musculus. Kind of data set: Inhibition of homologous recombinant repair in nude mouse xenografted with human SW1990 cells assessed as reversal of olaparib-induced TOPBP1 expression at 30 mg/kg, ip measured after 4 days by Western blot analysis. The conditions noted are these: time 4.0 day. The data set is classed as functional, organism-based.
The subject of data set [33] is SW1990. Briefly: Effect on HEXIM1 gene expression in human SW1990 cells at 1 to 2 uM by Q-PCR analysis. The format is functional, cell-based. The settings on record: dose 1-2 µM.
Data set [34] relates to SW1990. Kind of data set: Effect on BRCA1 gene expression in human SW1990 cells at 1 to 2 uM by Q-PCR analysis. The data set is classed as functional, cell-based. The settings on record: dose 1-2 µM.
Data set [35] relates to SW1990. Briefly: Effect on FOXM1 gene expression in human SW1990 cells at 1 to 2 uM by Q-PCR analysis. The data set is classed as functional, cell-based. The conditions noted are these: dose 1-2 µM.
Data set [36] deals with SW1990. Kind of data set: Effect on TOPBP1 gene expression in human SW1990 cells at 1 to 2 uM by Q-PCR analysis. The data set is classed as functional, cell-based. The settings on record: dose 1-2 µM.
Data set [37] relates to SW1990. Briefly: Downregulation of Ki67 expression in human SW1990 cells at 30 mg/kg, ip measured after 28 days by immuno histochemical staining based fluorescence microscopic analysis. The format is functional, organism-based. The conditions noted are these: time 28.0 day.
The test system of data set [38] is SW1990. Briefly: Inhibition of CCND1 protein expression in human SW1990 cells at 1 to 2 uM measured after 4 days by Western blot analysis. The data set is classed as functional, cell-based. The conditions noted are these: dose 1-2 µM, time 4.0 day.
Data set [39] deals with Mus musculus. Kind of data set: Induction of DNA damage in nude mouse xenografted with human SW1990 cells assessed as increase in gammaH2AX expression at 30 mg/kg, ip incubated for 4 days by DAPI staining based laser confocal microscopic analysis. The data set is classed as functional, organism-based. The conditions noted are these: time 4.0 day.

pIC50: −log10 of the molar value. Active and inactive are the calls of the source. No cut-off for these calls is given here.

Our source for the Activity, inhibition and IC50 values is ChEMBL document CHEMBL5131471, “Design, synthesis and mechanism studies of novel dual PARP1/BRD4 inhibitors against pancreatic cancer” (Eur J Med Chem, 2022).

Consider `O=C(c1cc(Cc2n[nH]c(=O)c3ccccc23)ccc1F)N1CCN(C(=O)C2CC2)CC1` [OLAPARIB], for which the Activity result in data set [1] and in [2] was “Non-Toxic” throughout. For the same compound, the outcome in the data set with Mus musculus [3], with Mus musculus [4], in the data set with SW1990 [5], in the data set on SW1990 [6], in the data set on SW1990 [7] and with SW1990 [8] was Active. The outcome in the data set with SW1990 [9] and in the data set with SW1990 [10] was Active.
Consider `Cc1sc2c(c1C)C(c1ccc(Cl)cc1)=N[C@@H](CC(=O)OC(C)(C)C)c1nnc(C)n1-2`, for which the result with SW1990 [11], in the data set with SW1990 [18], with SW1990 [19], in the data set with SW1990 [20], with SW1990 [21] and in the data set on SW1990 [22] was Active. Further, the result in the data set with SW1990 [23], with SW1990 [24] and with SW1990 [25] was Active. In addition, the Activity entry in [12] was “Non-Toxic”; in data set [13], “Non-Toxic”; in the data set with SW1990 [14], 5.76%; with SW1990 [15], 19.43%; in the data set with SW1990 [16] it was 5.51%; with SW1990 [17], 71.53%.
Regarding `Cc1noc(C)c1-c1ccc2c(c1)C(c1ccccc1)N(Cc1nc3c(C(N)=O)cccc3[nH]1)C(=O)N2C` (centres undefined), the inhibition result in the data set with Mus musculus [26], with SW1990 [27], in the data set on Mus musculus [29], in the data set on SW1990 [31], in the data set with Mus musculus [32] and in the data set with SW1990 [38] was “Active” each time. For the same compound, the negative-log IC50 (pIC50) (in general, −log10 of the IC50, conventionally taken in molar units) in data set [28] is 6.69. Also, the result in the data set with SW1990 [30], with SW1990 [33], in the data set with SW1990 [34], with SW1990 [35], in the data set with SW1990 [36] and in the data set with SW1990 [37] was Active. Further, the outcome with Mus musculus [39] was Active.
